From patent US6358885B1, “Substituted phenylheterocyclic herbicides” (Mississippi State University, priority 1992, dated 2002)

How the values were obtained:
giant foxtail = assay: Test C preemergence/postemergence greenhouse plant response rating 0 to 100; format: in vivo, Setaria faberii; conditions: POSTEMERGENCE; for Plant response rating, Giant foxtail: 0 to 100 scale
Description: (§1) The compounds evaluated in this test were formulated in a non-phytoxic solvent and applied to the soil surface before plant seedlings emerged (preemergence application), to water that covered the soil surface (flood application), and to plants that were in the one-to-four leaf stage (postemergence application). A sandy loam soil was used for the preemergence and postemergence tests, while a silt loam soil was used in the flood test. Water depth was approximately 2.5 cm for the flood test and was maintained at this level for the duration of the test. Plant species in the preemergence and postemergence tests consisted of barley (Hordeum vulgare), bedstraw (Galium aparine), blackgrass (Alopecurus myosuroides), chickweed (Stellaria media), corn (Zea mays), cotton (Gossypium hirsutum), crabgrass (Digitaria sanguinalis), downy brome (Bromus tectorum), giant foxtail (Setaria faberii), lambsquarters (Chenopodium album), morningglory (Ipomoea hederacea), pigweed ([…]), rape (Brassica napus), ryegrass (Lolium multiflorum), sorghum (Sorghum bicolor), soybean (Glycine max), speedwell (Veronica persica), sugar beet (Beta vulgaris), velvetleaf (Abutilon theophrasti), wheat (Triticum aestivum), wild buckwheat (Polygonum convolvulus), and wild oat (Avena fatua). All plant species were planted one day before application of the compound for the preemergence portion-of this test. Plantings of these species were adjusted to produce plants of appropriate size for the post-emergence portion of the test. […] All plant species were grown using normal greenhouse practices. Visual evaluations of injury expressed on treated plants, when compared to untreated controls, were recorded approximately fourteen to twenty one days after application of the test compound. […] A dash (-) response means no test result.

wheat [1] = assay: as above; format: in vivo, Triticum aestivum; conditions: POSTEMERGENCE; for Plant response rating, Wheat: 0 to 100 scale
Description: as §1

blackgrass = assay: as above; format: in vivo, Alopecurus myosuroides; conditions: POSTEMERGENCE; for Plant response rating, Blackgrass: 0 to 100 scale
Description: as §1

crabgrass = assay: as above; format: in vivo, Digitaria sanguinalis; conditions: POSTEMERGENCE; for Plant response rating, Crabgrass: 0 to 100 scale
Description: as §1

rape = assay: as above; format: in vivo, Brassica napus; conditions: POSTEMERGENCE; for Plant response rating, Rape: 0 to 100 scale
Description: as §1

bedstraw = assay: as above; format: in vivo, Galium aparine; conditions: POSTEMERGENCE; for Plant response rating, Bedstraw: 0 to 100 scale
Description: as §1

morningglory = assay: Test B preemergence/postemergence greenhouse plant response rating 0 to 10; format: in vivo, Ipomoea hederacea; conditions: 0 to 10 scale
Procedure, shortened: (§2)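 Test chemicals were sprayed onto freshly planted seed and, concurrently, onto young plants between the one and four leaf stage. After a twelve- to sixteen-day greenhouse period, each species was visually compared with untreated controls.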

wild oat = assay: Test C preemergence/postemergence greenhouse plant response rating 0 to 100; format: in vivo, Avena fatua; conditions: POSTEMERGENCE; for Plant response rating, Wild oat: 0 to 100 scale
Description: as §1

velvetleaf = assay: Test B preemergence/postemergence greenhouse plant response rating 0 to 10; format: in vivo, Abutilon theophrasti; conditions: 0 to 10 scale
Procedure, shortened: as §2

barnyardgrass = assay: as above; format: in vivo, Echinochloa crus-galli; conditions: for Plant response rating, Barnyardgrass: 0 to 10 scale
Procedure, shortened: as §2

cotton = assay: as above; format: in vivo, Gossypium hirsutum; conditions: for Plant response rating, Cotton: 0 to 10 scale
Procedure, shortened: as §2

wheat [2] = assay: as above; format: in vivo, Triticum aestivum; conditions: 0 to 10 scale
Procedure, shortened: as §2

With `CC(C)COc1cc(-c2nn3c(c2Cl)CCCC3)c(F)cc1Cl` [Compound 30] the “Plant response rating, Giant foxtail” value (giant foxtail; 62 g/ha) was 50, the “Plant response rating, Giant foxtail” value (giant foxtail; 250 g/ha) was 80 and the “Plant response rating (0 to 100), Giant foxtail” value (giant foxtail; Rate 4 g/ha) was 0. The “Plant response rating (0 to 100), Giant foxtail” value (giant foxtail; Rate 16 g/ha) was 20, the “Plant response rating, Wheat” value (wheat [1]; 62 g/ha) was 60 and the “Plant response rating, Wheat” value (wheat [1]; 250 g/ha) was 90. For the same compound, the “Plant response rating (0 to 100), Wheat” value (wheat [1]; Rate 4 g/ha) was 20, the “Plant response rating (0 to 100), Wheat” value (wheat [1]; Rate 16 g/ha) was 30 and the “Plant response rating, Blackgrass” value (blackgrass; 62 g/ha) was 60. For the same compound, the “Plant response rating, Blackgrass” value (blackgrass; 250 g/ha) was 80, the “Plant response rating (0 to 100), Blackgrass” value (blackgrass; Rate 4 g/ha) was 10 and the “Plant response rating (0 to 100), Blackgrass” value (blackgrass; Rate 16 g/ha) was 20. For the same compound, the “Plant response rating, Crabgrass” value (crabgrass; 62 g/ha) was 0, the “Plant response rating, Crabgrass” value (crabgrass; 250 g/ha) was 20 and the “Plant response rating (0 to 100), Crabgrass” value (crabgrass; Rate 4 g/ha) was 0. The “Plant response rating (0 to 100), Crabgrass” value (crabgrass; Rate 16 g/ha) was 0, the “Plant response rating, Rape” value (rape; 62 g/ha) was 100 and the “Plant response rating, Rape” value (rape; 250 g/ha) was 100. For the same compound, the “Plant response rating (0 to 100), Rape” value (rape; Rate 4 g/ha) was 50, the “Plant response rating (0 to 100), Rape” value (rape; Rate 16 g/ha) was 80 and the “Plant response rating, Bedstraw” value (bedstraw; 62 g/ha) was 100. The “Plant response rating, Bedstraw” value (bedstraw; 250 g/ha) was 100, the “Plant response rating (0 to 100), Bedstraw” value (bedstraw; Rate 4 g/ha) was 50 and the “Plant response rating (0 to 100), Bedstraw” value (bedstraw; Rate 16 g/ha) was 70. The “Plant response rating, Morningglory” value (morningglory; POSTEMERGENCE, Rate 50 g/ha) was 8, the “Plant response rating, Morningglory” value (morningglory; PREEMERGENCE, Rate 50 g/ha) was 2 and the “Plant response rating, Morningglory” value (morningglory; Rate 200 g/ha, POSTEMERGENCE) was 9. The “Plant response rating, Morningglory” value (morningglory; Rate 200 g/ha, PREEMERGENCE) was 5, the “Plant response rating, Wild oat” value (wild oat; 62 g/ha) was 60 and the “Plant response rating, Wild oat” value (wild oat; 250 g/ha) was 80. For the same compound, the “Plant response rating (0 to 100), Wild oat” value (wild oat; Rate 4 g/ha) was 20, the “Plant response rating (0 to 100), Wild oat” value (wild oat; Rate 16 g/ha) was 40 and the “Plant response rating, Velvetleaf” value (velvetleaf; POSTEMERGENCE, Rate 50 g/ha) was 7. The “Plant response rating, Velvetleaf” value (velvetleaf; PREEMERGENCE, Rate 50 g/ha) was 5, the “Plant response rating, Velvetleaf” value (velvetleaf; Rate 200 g/ha, POSTEMERGENCE) was 10 and the “Plant response rating, Velvetleaf” value (velvetleaf; Rate 200 g/ha, PREEMERGENCE) was 10. For the same compound, the “Plant response rating (0 to 10 scale), Barnyardgrass” value (barnyardgrass; POSTEMERGENCE, Rate 50 g/ha) was 6, the “Plant response rating, Barnyardgrass” value (barnyardgrass; POSTEMERGENCE, Rate 200 g/ha) was 10 and the “Plant response rating, Barnyardgrass” value (barnyardgrass; PREEMERGENCE, Rate 50 g/ha) was 2. For the same compound, the “Plant response rating, Barnyardgrass” value (barnyardgrass; Rate 200 g/ha, PREEMERGENCE) was 6, the “Plant response rating (0 to 10 scale), Cotton” value (cotton; POSTEMERGENCE, Rate 50 g/ha) was 10 and the “Plant response rating, Cotton” value (cotton; POSTEMERGENCE, Rate 200 g/ha) was 10. The “Plant response rating, Cotton” value (cotton; PREEMERGENCE, Rate 50 g/ha) was 2, the “Plant response rating, Cotton” value (cotton; Rate 200 g/ha, PREEMERGENCE) was 6 and the “Plant response rating, Wheat” value (wheat [2]; POSTEMERGENCE, Rate 50 g/ha) was 4. The “Plant response rating, Wheat” value (wheat [2]; PREEMERGENCE, Rate 50 g/ha) was 0, the “Plant response rating, Wheat” value (wheat [2]; Rate 200 g/ha, POSTEMERGENCE) was 5 and the “Plant response rating, Wheat” value (wheat [2]; Rate 200 g/ha, PREEMERGENCE) was 2.
In the case of `CC(C)N1C(=O)COc2cc(F)c(-c3nn4c(c3Cl)CCCC4)cc21` [Compound 31], the “Plant response rating, Giant foxtail” value (giant foxtail; 62 g/ha) was 40, the “Plant response rating (0 to 100), Giant foxtail” value (giant foxtail; Rate 1 g/ha) was 10 and the “Plant response rating (0 to 100), Giant foxtail” value (giant foxtail; Rate 4 g/ha) was 20. For the same compound, the “Plant response rating (0 to 100), Giant foxtail” value (giant foxtail; Rate 16 g/ha) was 30, the “Plant response rating, Wheat” value (wheat [1]; 62 g/ha) was 40 and the “Plant response rating (0 to 100), Wheat” value (wheat [1]; Rate 1 g/ha) was 10. The “Plant response rating (0 to 100), Wheat” value (wheat [1]; Rate 4 g/ha) was 30, the “Plant response rating (0 to 100), Wheat” value (wheat [1]; Rate 16 g/ha) was 30 and the “Plant response rating, Blackgrass” value (blackgrass; 62 g/ha) was 40. The “Plant response rating (0 to 100), Blackgrass” value (blackgrass; Rate 1 g/ha) was 10, the “Plant response rating (0 to 100), Blackgrass” value (blackgrass; Rate 4 g/ha) was 20 and the “Plant response rating (0 to 100), Blackgrass” value (blackgrass; Rate 16 g/ha) was 30. For the same compound, the “Plant response rating, Crabgrass” value (crabgrass; 62 g/ha) was 50, the “Plant response rating (0 to 100), Crabgrass” value (crabgrass; Rate 1 g/ha) was 10 and the “Plant response rating (0 to 100), Crabgrass” value (crabgrass; Rate 4 g/ha) was 20. For the same compound, the “Plant response rating (0 to 100), Crabgrass” value (crabgrass; Rate 16 g/ha) was 30, the “Plant response rating, Rape” value (rape; 62 g/ha) was 100 and the “Plant response rating (0 to 100), Rape” value (rape; Rate 1 g/ha) was 30. The “Plant response rating (0 to 100), Rape” value (rape; Rate 4 g/ha) was 60, the “Plant response rating (0 to 100), Rape” value (rape; Rate 16 g/ha) was 95 and the “Plant response rating, Bedstraw” value (bedstraw; 62 g/ha) was 100. For the same compound, the “Plant response rating (0 to 100), Bedstraw” value (bedstraw; Rate 1 g/ha) was 75, the “Plant response rating (0 to 100), Bedstraw” value (bedstraw; Rate 4 g/ha) was 85 and the “Plant response rating (0 to 100), Bedstraw” value (bedstraw; Rate 16 g/ha) was 100. For the same compound, the “Plant response rating, Morningglory” value (morningglory; POSTEMERGENCE, Rate 10 g/ha) was 9, the “Plant response rating, Morningglory” value (morningglory; POSTEMERGENCE, Rate 50 g/ha) was 10 and the “Plant response rating, Morningglory” value (morningglory; PREEMERGENCE, Rate 50 g/ha) was 5. For the same compound, the “Plant response rating, Wild oat” value (wild oat; 62 g/ha) was 50, the “Plant response rating (0 to 100), Wild oat” value (wild oat; Rate 1 g/ha) was 10 and the “Plant response rating (0 to 100), Wild oat” value (wild oat; Rate 4 g/ha) was 30. For the same compound, the “Plant response rating (0 to 100), Wild oat” value (wild oat; Rate 16 g/ha) was 30, the “Plant response rating, Velvetleaf” value (velvetleaf; POSTEMERGENCE, Rate 10 g/ha) was 10 and the “Plant response rating, Velvetleaf” value (velvetleaf; POSTEMERGENCE, Rate 50 g/ha) was 10. The “Plant response rating, Velvetleaf” value (velvetleaf; PREEMERGENCE, Rate 50 g/ha) was 9, the “Plant response rating, Barnyardgrass” value (barnyardgrass; POSTEMERGENCE, Rate 10 g/ha) was 4 and the “Plant response rating (0 to 10 scale), Barnyardgrass” value (barnyardgrass; POSTEMERGENCE, Rate 50 g/ha) was 6. The “Plant response rating, Barnyardgrass” value (barnyardgrass; PREEMERGENCE, Rate 10 g/ha) was 0, the “Plant response rating, Barnyardgrass” value (barnyardgrass; PREEMERGENCE, Rate 50 g/ha) was 3 and the “Plant response rating, Cotton” value (cotton; POSTEMERGENCE, Rate 10 g/ha) was 10. For the same compound, the “Plant response rating (0 to 10 scale), Cotton” value (cotton; POSTEMERGENCE, Rate 50 g/ha) was 10, the “Plant response rating, Cotton” value (cotton; PREEMERGENCE, Rate 10 g/ha) was 0 and the “Plant response rating, Cotton” value (cotton; PREEMERGENCE, Rate 50 g/ha) was 0. For the same compound, the “Plant response rating, Wheat” value (wheat [2]; POSTEMERGENCE, Rate 10 g/ha) was 5, the “Plant response rating, Wheat” value (wheat [2]; POSTEMERGENCE, Rate 50 g/ha) was 5 and the “Plant response rating, Wheat” value (wheat [2]; PREEMERGENCE, Rate 50 g/ha) was 1.
